# Results from ChEMBL document CHEMBL4321867, “Optimization of LpxC Inhibitor Lead Compounds Focusing on Efficacy and Formulation for High Dose Intravenous Administration” (J Med Chem, 2020).
# Experiments:
# [1] = physchem; details: n-octanol/phosphate buffer, pH 7.4
# [2] = in vitro; details: rat, plasma
# [3] = in vitro; details: rat, hepatocytes
# [4] = in vitro; details: human, liver microsomes
# [5] = in vivo; details: Wistar, rat, iv, 10 mg/kg
# [6] = test system: Escherichia coli; test: microbe, parasite or virus in culture; details: ATCC 25922
# [7] = test system: Pseudomonas aeruginosa; test: microbe, parasite or virus in culture; details: ATCC 27853
# [8] = in vitro; details: rat, liver microsomes
# [9] = test system: T1, UDP-3-O-acyl-N-acetylglucosamine deacetylase (Escherichia coli K-12), P0A725 [C125S]; details: 25 uM
# T1 sequence (whole entry): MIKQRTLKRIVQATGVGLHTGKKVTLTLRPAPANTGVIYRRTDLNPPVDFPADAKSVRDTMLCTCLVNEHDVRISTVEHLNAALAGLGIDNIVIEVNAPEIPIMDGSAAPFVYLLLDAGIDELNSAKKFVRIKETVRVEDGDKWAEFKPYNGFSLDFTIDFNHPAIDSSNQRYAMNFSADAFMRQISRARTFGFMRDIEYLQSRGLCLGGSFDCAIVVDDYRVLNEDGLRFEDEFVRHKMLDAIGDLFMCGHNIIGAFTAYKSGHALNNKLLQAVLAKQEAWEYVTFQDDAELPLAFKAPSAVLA
# [10] = test system: T2, UDP-3-O-acyl-N-acetylglucosamine deacetylase (Pseudomonas aeruginosa (strain ATCC 15692 / PAO1 / 1C / PRS 101 / LMG12228)), P47205 [C40S]; details: 25 uM
# T2 sequence (whole entry): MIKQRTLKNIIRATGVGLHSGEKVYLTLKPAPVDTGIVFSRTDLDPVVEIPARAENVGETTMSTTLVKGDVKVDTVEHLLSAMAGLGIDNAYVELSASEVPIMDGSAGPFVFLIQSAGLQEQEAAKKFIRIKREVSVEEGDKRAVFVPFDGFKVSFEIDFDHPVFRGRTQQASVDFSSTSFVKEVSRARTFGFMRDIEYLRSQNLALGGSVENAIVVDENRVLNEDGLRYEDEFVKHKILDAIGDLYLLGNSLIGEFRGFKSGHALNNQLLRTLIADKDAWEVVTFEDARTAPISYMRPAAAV
# [11] = physchem
# [12] = in vivo; details: mouse, sc, 150 mg/kg
# [13] = in vitro; details: human, hepatocytes
# [14] = test system: Klebsiella pneumoniae; test: microbe, parasite or virus in culture; details: T6474
# [15] = test system: Klebsiella oxytoca; test: microbe, parasite or virus in culture
# [16] = test system: Pseudomonas aeruginosa; test: microbe, parasite or virus in culture
# [17] = physchem; details: 5% mannitol/water, pH 8.4
# [18] = physchem; details: buffer, pH 9
# [19] = test system: Enterobacter cloacae; test: microbe, parasite or virus in culture
# [20] = physchem; details: buffer, pH 7
# [21] = test system: Escherichia coli; test: microbe, parasite or virus in culture
# [22] = test system: Proteus mirabilis; test: microbe, parasite or virus in culture
# [23] = test system: Citrobacter freundii; test: microbe, parasite or virus in culture
# [24] = test system: Morganella morganii; test: microbe, parasite or virus in culture
# [25] = test system: Burkholderia cepacia; test: microbe, parasite or virus in culture
# [26] = physchem; details: buffer, pH 4
# [27] = test system: Haemophilus influenzae; test: microbe, parasite or virus in culture
# [28] = test system: Klebsiella pneumoniae; test: microbe, parasite or virus in culture
# [29] = test system: Moraxella catarrhalis; test: microbe, parasite or virus in culture
# [30] = test system: Klebsiella aerogenes; test: microbe, parasite or virus in culture
# [31] = test system: Stenotrophomonas maltophilia; test: microbe, parasite or virus in culture
# [32] = test system: Acinetobacter baumannii; test: microbe, parasite or virus in culture
# [33] = test system: Serratia marcescens; test: microbe, parasite or virus in culture
# [34] = in vivo; details: Wistar, rat, iv, 50 mg/kg
# [35] = physchem; details: 5% mannitol/water, pH 4.5
# [36] = in vivo; details: mouse, sc, 50 mg/kg
Structure (SMILES),fraction unbound at 1 µM [2],hepatocyte CLint at 1 µM [3] [µL/min/1e6 cells],microsomal CLint at 1 µM [4] [µL/min/mg],MIC [6] [µg/mL],MIC [7] [µg/mL],microsomal CLint at 1 µM [8] [µL/min/mg],MIC90 [15] [µg/mL],MIC90 [16] [µg/mL],MIC90 [21] [µg/mL],MIC90 [22] [µg/mL],MIC90 [23] [µg/mL],MIC90 [24] [µg/mL],MIC90 [25] [µg/mL],MIC90 [27] [µg/mL],MIC90 [28] [µg/mL],MIC90 [29] [µg/mL],MIC90 [30] [µg/mL],MIC90 [31] [µg/mL],MIC90 [32] [µg/mL],MIC90 [33] [µg/mL],also measured
C[C@@](CCN1Cc2cc(C#CC#CC3(N)CC3)cn2C1=O)(C(=O)NO)S(C)(=O)=O,0.111,17,< 10,0.25,0.5,14,–,–,–,–,–,–,–,–,–,–,–,–,–,–,logD [1]: 0.7; clearance at 24 h [5]: 29 mL/min/kg; deltaTm [9]: 10 K; deltaTm [10]: 11.6 K; pKa [11]: 6.5; AUC(0-t) at 24 h [12]: 44700 ng·h/mL; hepatocyte CLint at 1 µM [13]: < 2 µL/min/1e6 cells; MIC [14]: 0.25 µg/mL
C[C@@](CCN1Cc2cc(C#CC#C[C@@H]3C[C@@]3(F)CO)cn2C1=O)(C(=O)NO)S(C)(=O)=O,0.017,13,< 10,0.25,0.5,12,4,2,2,2,1,0.5,2,≤ 0.03,4,> 16,2,> 16,> 16,1,logD [1]: 0.9; clearance at 24 h [5]: 5.2 mL/min/kg; solubility [17]: 1000 µg/mL; solubility at 24 h [18]: > 760 µg/mL; MIC90 [19]: 4 µg/mL; solubility at 24 h [20]: 248 µg/mL; solubility at 24 h [26]: 220 µg/mL; AUC(0-t) at 24 h [12]: 236000 ng·h/mL; hepatocyte CLint at 1 µM [13]: < 2 µL/min/1e6 cells; MIC [14]: 0.5 µg/mL
CN(C)c1cc(NC(=O)CNC(C)(C)C)c(O)c2c1C[C@H]1C[C@H]3[C@H](N(C)C)C(O)=C(C(N)=O)C(=O)[C@@]3(O)C(O)=C1C2=O [TIGECYCLINE],–,–,–,–,–,–,0.5,> 16,1,4,1,8,> 16,0.25,4,0.5,1,4,16,2,MIC90 [19]: 4 µg/mL
O=C(O)c1cn(C2CC2)c2cc(N3CCNCC3)c(F)cc2c1=O [CIPROFLOXACIN],–,–,–,–,–,–,≤ 0.016,> 8,> 8,0.125,0.125,≤ 0.016,8,≤ 0.016,> 8,1,0.03,8,> 8,0.25,–
C[C@@](CCN1Cc2cc(C#CC#CC3CN(CCO)C3)cn2C1=O)(C(=O)NO)S(C)(=O)=O,0.301,7.3,14,0.5,0.5,198,4,2,1,1,1,1,16,≤ 0.03,2,> 16,1,> 16,> 16,1,logD [1]: 0.1; solubility at 24 h [18]: > 780 µg/mL; MIC90 [19]: 4 µg/mL; solubility at 24 h [20]: > 780 µg/mL; clearance at 24 h [34]: 28 mL/min/kg; deltaTm [9]: 9.7 K; solubility at 24 h [26]: > 780 µg/mL; deltaTm [10]: 11.2 K; pKa [11]: 7.9; AUC(0-t) at 24 h [12]: 63200 ng·h/mL; hepatocyte CLint at 1 µM [13]: < 2 µL/min/1e6 cells; MIC [14]: 1 µg/mL; solubility [35]: 30000 µg/mL
C[C@@](CCN1Cc2cc(C#CC#CC3CN(CCF)C3)cn2C1=O)(C(=O)NO)S(C)(=O)=O,0.067,15.4,< 10,0.06,0.5,> 1250,0.125,1,0.25,0.5,0.5,0.25,4,≤ 0.03,2,> 16,1,> 16,> 16,0.25,logD [1]: 1; clearance at 24 h [5]: 38 mL/min/kg; solubility at 24 h [18]: > 780 µg/mL; MIC90 [19]: 1 µg/mL; solubility at 24 h [20]: 247 µg/mL; deltaTm [9]: 10.6 K; solubility at 24 h [26]: > 780 µg/mL; deltaTm [10]: 12.9 K; pKa [11]: 6.7; AUC(0-t) at 24 h [12]: 49100 ng·h/mL; hepatocyte CLint at 1 µM [13]: < 2 µL/min/1e6 cells; MIC [14]: 0.25 µg/mL; solubility [35]: 25000 µg/mL
CN1CC(C#CC#Cc2cc3n(c2)C(=O)N(CC[C@](C)(C(=O)NO)S(C)(=O)=O)C3)C1,0.19,8.6,48,0.5,0.5,665,4,2,1,1,1,0.5,16,≤ 0.03,4,> 16,1,> 16,> 16,0.5,logD [1]: 0.3; clearance at 24 h [5]: 18 mL/min/kg; solubility at 24 h [18]: > 730 µg/mL; MIC90 [19]: 4 µg/mL; solubility at 24 h [20]: > 730 µg/mL; deltaTm [9]: 8.9 K; solubility at 24 h [26]: > 730 µg/mL; deltaTm [10]: 9.9 K; pKa [11]: 8.4; AUC(0-t) at 24 h [12]: 52900 ng·h/mL; hepatocyte CLint at 1 µM [13]: < 2 µL/min/1e6 cells; MIC [14]: 0.5 µg/mL; solubility [35]: 30000 µg/mL
C[C@@](CCN1Cc2cc(C#CC#C[C@H]3C[C@@H]3CO)cn2C1=O)(C(=O)NO)S(C)(=O)=O,0.008,19,< 10,0.12,0.25,< 10,–,–,–,–,–,–,–,–,–,–,–,–,–,–,clearance at 24 h [5]: 17 mL/min/kg; solubility at 24 h [18]: 628 µg/mL; solubility at 24 h [20]: 588 µg/mL; AUC(0-t) at 24 h [36]: 124000 ng·h/mL; solubility at 24 h [26]: 600 µg/mL; hepatocyte CLint at 1 µM [13]: 3.2 µL/min/1e6 cells; MIC [14]: 0.25 µg/mL
C[C@@H](O)[C@H]1C(=O)N2C(C(=O)O)=C(SCCNC=N)C[C@H]12 [IMIPENEM ANHYDROUS],–,–,–,–,–,–,0.5,> 16,0.25,4,1,16,> 16,0.5,> 16,0.06,2,> 16,> 16,1,MIC90 [19]: 1 µg/mL
